Source: the Kinase Knowledgebase extract (Sharma et al. 2016)

These compounds were tested against PIK3CA (human) (UniProt P42336) (assay: Assessment of PIK3CA Kinase Activity).
Sequence of PIK3CA (human) (P42336 whole entry, looked up): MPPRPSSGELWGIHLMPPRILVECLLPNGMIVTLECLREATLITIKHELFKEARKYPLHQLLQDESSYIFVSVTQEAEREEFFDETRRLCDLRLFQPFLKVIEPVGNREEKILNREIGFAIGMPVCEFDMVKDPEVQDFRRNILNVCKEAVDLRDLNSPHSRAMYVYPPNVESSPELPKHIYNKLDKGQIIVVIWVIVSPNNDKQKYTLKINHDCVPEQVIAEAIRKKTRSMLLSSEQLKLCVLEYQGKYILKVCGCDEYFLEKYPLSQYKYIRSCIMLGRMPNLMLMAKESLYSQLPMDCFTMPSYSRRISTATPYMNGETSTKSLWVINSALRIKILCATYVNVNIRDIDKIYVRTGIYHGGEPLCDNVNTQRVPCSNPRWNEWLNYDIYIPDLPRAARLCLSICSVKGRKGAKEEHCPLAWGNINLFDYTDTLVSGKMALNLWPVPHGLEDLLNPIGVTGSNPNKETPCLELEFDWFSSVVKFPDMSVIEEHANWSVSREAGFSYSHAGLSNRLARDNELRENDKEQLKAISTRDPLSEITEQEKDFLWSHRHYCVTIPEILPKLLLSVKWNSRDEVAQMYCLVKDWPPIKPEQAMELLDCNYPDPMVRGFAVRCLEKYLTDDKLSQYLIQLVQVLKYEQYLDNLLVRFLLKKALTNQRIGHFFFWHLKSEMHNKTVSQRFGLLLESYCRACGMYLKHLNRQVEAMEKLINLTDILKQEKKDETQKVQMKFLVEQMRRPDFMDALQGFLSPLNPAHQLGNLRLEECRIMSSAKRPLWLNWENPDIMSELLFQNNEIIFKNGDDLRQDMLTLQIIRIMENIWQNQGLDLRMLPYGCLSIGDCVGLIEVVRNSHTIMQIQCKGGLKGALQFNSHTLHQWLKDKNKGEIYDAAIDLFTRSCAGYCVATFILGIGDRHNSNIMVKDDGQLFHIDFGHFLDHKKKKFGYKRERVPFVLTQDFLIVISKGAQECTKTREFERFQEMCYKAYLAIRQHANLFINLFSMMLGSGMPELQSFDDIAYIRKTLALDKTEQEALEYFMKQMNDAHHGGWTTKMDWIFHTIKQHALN

SMILES | IC50 [nM]
CC(C)n1ncnc1-c1nc2c(s1)CCOc1cc(C(=O)NCCOCCO)ccc1-2 | < 1000
CC(C)Oc1cc(-c2ccc3c(c2)-c2nc(-c4ncnn4C(C)C)sc2CCO3)ccn1 | < 1000
N#CCCN(C(=O)c1nc2c(s1)CCOc1cc(-c3cn[nH]c3)ccc1-2)C1CCCC1 | < 1000
Cc1noc(C)c1-c1ccc2c(c1)OCCc1sc(C(=O)N(CCO)C(C)C)nc1-2 | < 1000
CC(=O)N1CCCN(c2ccc3c(n2)-c2sc(-c4ncnn4-c4ccc(F)cc4F)cc2CCO3)CC1 | < 1000
CS(=O)(=O)CCNc1ccc(-c2ccc3c(n2)-c2sc(-c4ncnn4-c4ccc(F)cc4F)cc2CCO3)cn1 | < 1000
CC(C)CN(C)C(=O)c1nc2c(s1)CCOc1cc(-c3cn[nH]c3)ccc1-2 | < 1000
CN(CCO)C(=O)c1nc2c(s1)CCOc1cc(-c3cn[nH]c3)ccc1-2 | < 1000
CN1CCC(n2ncnc2-c2nc3c(s2)CCOc2cc(-c4cnn(CCO)c4)ccc2-3)CC1 | < 1000
CC(C)n1ncnc1-c1nc2c(s1)CCOc1cc(C3CCN(C(C)(C)C(N)=O)CC3)ccc1-2 | < 1000
CC(=O)N1CC(n2c(Cl)cnc2-c2nc3c(s2)CCOc2cc(-c4cnn(CC(C)(C)O)c4)ccc2-3)C1 | < 1000
Cc1cncc(-c2ccc3c(c2)-c2nc(-c4ncnn4C(C)C)sc2CCO3)c1 | < 1000
Cc1nn(C)c(=O)n1-c1nc2c(s1)CCOc1cc(-c3cnn(CC(C)(C)O)c3)ccc1-2 | < 1000
O=C(c1nc2c(s1)CCOc1cc(-c3cn[nH]c3)ccc1-2)N1CCN(c2cccnc2)CC1 | < 1000
CC(C)n1ncnc1-c1nc2c(s1)CCOc1ccc(-c3ccn(C(C)C)c(=O)c3)cc1-2 | < 1000
CN(C)C(=O)N1CCN(C(=O)c2nc3c(s2)CCOc2cc(-c4cn[nH]c4)ccc2-3)CC1 | < 1000
CC(C)n1ncnc1-c1nc2c(s1)CCOc1cc(C3CN(Cc4ncco4)C3)ccc1-2 | < 1000

SMILES | IC50 [nM]
Fc1ccc(-n2ncnc2-c2cc3c(s2)-c2nc(-c4ccc(NCCN5CCOCC5)nc4)ccc2OCC3)c(F)c1 | < 1000
CC(C)n1ncnc1-c1nc2c(s1)CCOc1cc(C3CN(S(C)(=O)=O)C3)ccc1-2 | < 1000
C[C@H](O)CNC(=O)c1ccc2c(c1)OCCc1sc(-c3ncnn3CC(F)(F)F)nc1-2 | < 1000
CC(=O)Nc1ccc(-c2ccc3c(n2)-c2sc(-c4ncnn4-c4ccc(F)cc4F)cc2CCO3)cn1 | < 1000
Fc1ccc(-n2ncnc2-c2cc3c(s2)-c2nc(NC4COC4)ccc2OCC3)c(F)c1 | < 1000
CC(C)n1ncnc1-c1nc2c(s1)CCOc1cc(C3CN(CC(=O)N4CCOCC4)C3)ccc1-2 | < 1000
COc1ncccc1-c1ccc2c(n1)-c1sc(-c3ncnn3-c3ccc(F)cc3F)cc1CCO2 | < 1000
CC(C)n1ncnc1-c1nc2c(s1)CCOc1cc(C3CN(CCS(C)(=O)=O)C3)ccc1-2 | < 1000
CC(C)(C)C1CCN(C(=O)c2nc3c(s2)CCOc2cc(-c4cn[nH]c4)ccc2-3)CC1 | < 1000
OCCn1cc(-c2ccc3c(c2)OCCc2sc(-c4ncnn4-c4ccc(F)cc4F)nc2-3)cn1 | < 1000
CC(C)n1ncnc1-c1nc2c(s1)CCOc1cc(-c3cnn(C(C)(C)C(=O)NC4CN(C)C4)c3)ccc1-2 | < 1000
CC(C)n1ncnc1-c1nc2c(s1)CCOc1cc(-c3cnc(CO)n3C)ccc1-2 | < 1000
O=C(c1nc2c(s1)CCOc1cc(-c3cn[nH]c3)ccc1-2)N1CCCCC1 | < 1000
CC(C)n1ncnc1-c1nc2c(s1)CCOc1ccc(-c3c[nH]c(=O)[nH]c3=O)cc1-2 | < 1000
CC(C)(O)Cn1cc(-c2ccc3c(c2)OCCc2sc(-c4ncnn4CCN4CCOCC4)nc2-3)cn1 | < 1000
CC(C)(CO)n1cc(-c2ccc3c(c2)OCCc2sc(-c4ncnn4CC(F)(F)F)nc2-3)cn1 | < 1000
CC(C)n1ncnc1-c1nc2c(s1)CCOc1ccc(C3CN(C(=O)[C@@H](C)O)C3)cc1-2 | < 1000

The remaining lines, values ahead:

IC50 [nM] | SMILES
< 1000 | CC(C)n1ncnc1-c1nc2c(s1)CCOc1cc(C3CN(C(=O)[C@@H](C)O)C3)ccc1-2
< 1000 | COCC1CCN(C(=O)c2nc3c(s2)CCOc2cc(-c4cn[nH]c4)ccc2-3)CC1
< 1000 | Cc1nc(-c2nc3c(s2)CCOc2cc(C4CN(C[C@H](O)CO)C4)ccc2-3)n(C(C)C)n1
< 1000 | CC1(C)C(=O)NC(=O)N1c1nc2c(s1)CCOc1cc(C3CCNCC3)ccc1-2
< 1000 | Cc1nc(-c2nc3c(s2)CCOc2cc([C@H]4CCCNC4)ccc2-3)n(C(C)C)n1
< 1000 | CNC(=O)c1ccc2c(c1)OCCc1cc(C(=O)N(C)c3cc(C(=O)N4CCNCC4)ccc3Cl)sc1-2
< 1000 | Fc1ccc(-n2ncnc2-c2cc3c(s2)-c2nc(NC4CCOCC4)ccc2OCC3)c(F)c1
< 1000 | CC(C)n1ncnc1-c1nc2c(s1)CCOc1cc(C3CN(C(C)(C)CO)C3)ccc1-2
< 1000 | COCCn1cc(-c2ccc3c(c2)OCCc2sc(-c4ncnn4C(C)C)nc2-3)ccc1=O
< 1000 | O=C(c1nc2c(s1)CCOc1cc(-c3cn[nH]c3)ccc1-2)N1CCN(C[C@H]2CCCO2)CC1
< 1000 | CC(C)n1nc(N)nc1-c1nc2c(s1)CCOc1cc(C(=O)NC3CN(C)C3)ccc1-2
< 1000 | CC(C)N(CCCO)C(=O)c1nc2c(s1)CCOc1cc(-c3cn[nH]c3)ccc1-2
< 1000 | Fc1ccc(-n2ncnc2-c2cc3c(s2)-c2nc(-c4ccc(N5CCOCC5)nc4)ccc2OCC3)c(F)c1
< 1000 | CC(=O)N1CCN(C(=O)c2nc3c(s2)CCOc2cc(-c4cn[nH]c4)ccc2-3)CC1
< 1000 | CS(=O)(=O)N1CC(Nc2ccc3c(n2)-c2sc(-c4ncnn4-c4ccc(F)cc4F)cc2CCO3)C1
< 1000 | CC(C)n1c(-c2nc3c(s2)CCOc2cc(-c4cnn(CCO)c4)ccc2-3)nnc1C(F)(F)F

IC50 [nM] | SMILES
< 1000 | CCN(CC)CCn1cc(-c2ccc3c(c2)OCCc2sc(-c4ncnn4CC(F)(F)F)nc2-3)cn1
< 1000 | COc1cc(C)c(-c2ccc3c(n2)-c2sc(-c4ncnn4-c4ccc(F)cc4F)cc2CCO3)cn1
< 1000 | O=S1(=O)CCC(n2cc(-c3ccc4c(c3)OCCc3sc(-c5ncnn5CC(F)(F)F)nc3-4)cn2)C1 (stereo not given)
< 1000 | O=C(c1ccccc1)N1CCN(C(=O)c2nc3c(s2)CCOc2cc(-c4cn[nH]c4)ccc2-3)CC1
< 1000 | CC(C)n1ncnc1-c1nc2c(s1)CCOc1ccc(C3CN(C(=O)[C@H](C)O)C3)cc1-2
< 1000 | CC(C)(C(N)=O)n1cc(-c2ccc3c(c2)OCCc2sc(-c4ncnn4CC(F)(F)F)nc2-3)cn1
< 1000 | COCCOc1ncccc1-c1ccc2c(c1)-c1nc(-c3ncnn3C(C)C)sc1CCO2
< 1000 | COc1ccc(CNc2ccc3c(n2)-c2sc(-c4ncnn4-c4ccc(F)cc4F)cc2CCO3)cc1
< 1000 | CC1(C)CCCN(C(=O)c2nc3c(s2)CCOc2cc(-c4cn[nH]c4)ccc2-3)C1
< 1000 | CC(C)n1ncnc1-c1nc2c(s1)CCOc1cc(C3CCN(CC(=O)N(C)C)CC3)ccc1-2
< 1000 | Cc1cc(-c2ccc3c(n2)-c2sc(-c4ncnn4-c4ccc(F)cc4F)cc2CCO3)cnc1N1CCN(C)CC1
< 1000 | C[C@@H](O)CNC(=O)c1ccc(Cl)c(N(C)C(=O)c2cc3c(s2)-c2ccc(C(=O)NCCS(C)(=O)=O)cc2OCC3)c1
< 1000 | CNS(=O)(=O)CCN1CC(c2ccc3c(c2)OCCc2sc(-c4ncnn4C(C)C)nc2-3)C1
< 1000 | CC(C)n1ncnc1-c1nc2c(s1)CCOc1ccc(-c3ccc(S(N)(=O)=O)cc3)cc1-2
< 1000 | COCc1nc(-c2nc3c(s2)CCOc2ccccc2-3)n(C(C)C)n1
